# Measurements as given in US20130252886A1, “METHODS OF DELAYING AND TREATING DIABETES” (priority 2010, published 2013).
# “Also recorded” adds a separate entry of the source.
# Tests used:
# Type in all cases: in vivo
# [1] = system: Female NOD mice (NOD/ShiLtJ, Taconic); assay: Insulin requirement and blood glucose in diabetic NOD mice, GABA vs lysine controls (Example 6)
# Method: Female NOD mice (NOD/ShiLtJ, Taconic) were housed in accordance with NIH Animal Use and Welfare guidelines with 12 hour light-dark cycle beginning at 9 weeks of age. The animals were fed a standard rodent diet ad lib. Blood glucose was measured weekly using a Freestyle glucometer, and then twice daily once it was determined they had diabetes.
# Mice were considered diabetic if a single non-fasting blood glucose measurement was […]. For about eight weeks before the mice became diabetic, their average fasting blood glucose was 102 mg/dl. Once diabetic, blood glucose levels were measured twice daily, approximately eight hours apart. All of the mice received insulin subcutaneously twice daily and the dosage was adjusted as needed. Three diabetic mice were randomly designated as controls and were given the amino acid lysine (8 mg/kg) orally (PO) twice a day before the administration of insulin.
# insulin-dependent dogs [2] = assay: Clinical trial of oral GABA in naturally-occurring insulin-dependent dogs: blood glucose, fructosamine
# Method: These companion dogs were housed in homes, mimicking the lifestyle of diabetic humans. Based on published estimates, approximately 50% of these animals had insulitis, while others have had pancreatitis.
# The GABA was diluted in water and the owner administers it orally (PO QD) as a bolus just before feeding. […] Once randomized on day 120, all investigators were blinded as to treatment.
# As previously described in Example 5, supra, the 8 month clinical canine trial in collaboration with Purdue University was completed. Naturally-occurring diabetic dogs were housed in homes and were insulin dependent when they began the study. FIGS. 18 and 19 show the mean 10 hour fasting blood glucose (mg/dl) and mean C-peptide (ng/ml/kg) in these insulin-dependent dogs, respectively.
# FIG. 18 is a graph of the mean blood glucose in the seven dogs measured during a ten hour window. On a measurement day, the dogs were fed and given insulin. Blood glucose was then monitored at ˜8:00 AM and for every two hours until ˜6:00 PM. The mean of these values was taken and plotted in FIG. 18.
# On day 0, the mean 10 hr glucose was 310 mg/dl. From day 0 to day 60, the dogs were treated with insulin only. […] The mean blood glucose over the 10 hour measurement period dropped to 209 mg/dl by the last visit, a 33% overall improvement without a significant change in the average insulin dosage.
# female NOD mice = assay: Diabetes prevention/delayed onset study, fasting blood glucose
# Excerpt: Normally, ninety to one hundred percent of female NOD mice, available, for example, from Jackson Laboratory, develop diabetes by 30 weeks of age. Two treatments were designed to study delaying the onset of diabetes and diabetes intervention in NOD mice. The first examined therapies in NOD mice beginning at 8 weeks of age to delay the onset of diabetes onset.
# In the diabetes prevention/delayed onset study, mice were divided into five groups. […] Group 3 received 0.4 units insulin subcutaneously just prior to consuming food.
# Female NOD mice (Jackson Laboratory) were allowed to access food ad lib overnight. A 12 hour light-dark cycle was maintained and mice were housed in accordance with the NIH Animal Care and Use guidelines. Food was removed for eight hours during the day and the fasting blood glucose was tested daily at the end of the eight hour fast.
# The control group received vegetable oil to the fur without anything else. […] The insulin only group was given 0.4 units insulin (SQ) just before feeding.
# Diabetes was defined as a fasting blood glucose ≧200 mg/dl on three consecutive days. The average of the fasting blood glucose over the three days was included in the calculation of the average for each group in the prevention data (see Table 1 and FIG. 1).
# [3] = Average body weight / lean body mass of NOD mice; conditions: 30 mg/kg GABA and/or 0.4 U insulin groups
# Excerpt: FIGS. 3 and 4 show the average weight for the NOD mice in each group during the course of the experiment. The x-axis (age of mouse in weeks) corresponds to both the delayed onset and treatment regimens, depending on when the diagnosis of diabetes was made.
# diabetic female NOD mice = assay: Diabetes treatment protocol in diabetic NOD mice (GABA before insulin, BID)
# Excerpt: Once the NOD mice became diabetic, they were shifted from the prevention/delayed onset regimen into the treatment protocol. […] The first dose of GABA was given just after removing the food from the cage and a second dose was given approximately eight hours later, just before feeding. […] Two NOD mice were maintained on insulin when they became diabetic, to serve as controls.
# The first dose of GABA was given just after removing the food from the cage and a second dose was given approximately eight hours later, just before feeding. The insulin dose administered was based on each mouse's blood glucose level.
# Female non-obese diabetic (NOD) mice (Jackson Laboratory) were used to study GABA treatment efficacy. Diabetes normally occurs in 90-100% of these mice by 30 weeks and they develop the insulitis and hypoinsulinemia that characterizes Type 1 diabetes in humans. Mice were housed in accordance with NIH Animal Use and Welfare guidelines with 12 hour light-dark cycle beginning at 8 weeks of age. Animals were fed a standard rodent diet ad lib overnight followed by removal of food from the cage for an 8 hour fast. Before and after the eight hour fast, blood glucose was measured weekly using a Freestyle Glucometer and then daily once mice were determined to be diabetic. Mice were considered diabetic if at the end of the 8 hours fast, on three consecutive days, glucose measurements were ≧200 mg/dl. Onset of diabetes usually began to occur when the mice were 12 weeks of age.
# [4] = Pharmacokinetics: plasma GABA concentration in diabetic dogs (LC/MS)
# Method: Plasma GABA measurements were made by liquid chromatography/mass spectroscopy. Blood was drawn at 0, 60, 90, 120 and 240 minutes and plotted as area under the curve. These samples were drawn after a meal but in the absence of exogenous insulin administration, as previously described for C-peptide measurements. Blood samples were drawn and divided into serum separation or plasma separation tubes for C-peptide and pharmacokinetics studies respectively.
# This bell shaped response mimics what is seen in dose-response curves with GABA in vitro.
# insulin-dependent dogs [5] = assay: Stimulated C-peptide in insulin-dependent dogs (radioimmunoassay); conditions: oral GABA 30, 60, 90 mg/kg, seven dogs
# Excerpt: C-peptide was monitored as a way to determine the amount of endogenous insulin synthesized and secreted in these diabetic dogs. Endogenous insulin is first biosynthesized as linked A, B and C peptides. The C-peptide is removed and circulates in the blood stream. The active insulin molecule is linked A & B peptide only. Since diabetic patients administering insulin injections receive exogenous A & B peptide, the measurement of C-peptide can determine of how much endogenous insulin is produced by the individual's pancreas.
# In this study stimulated C-peptide was measured every two months. On the day of C-peptide measurements, blood was drawn at time 0 and the dog was fed stimulating C-peptide release. No exogenous insulin was given by injection to avoid suppressing endogenous insulin secretion. Blood was drawn again at 60, 90, 120 and 240 minutes. […] C-peptide was plotted as area under the curve measurements. The values for the placebo treatment have been grouped and represent all seven dogs.
# NOD mouse pancreas = assay: Pancreas histology of NOD mice
# Method: NOD mice, as previously described in Examples 1-4, supra, were anesthetized with an intraperitoneal injection of 75 mg/kg pentobarbital (Nembutol). When mice were unresponsive to painful stimuli, the pancreas was surgically removed and placed in 10% neutral buffered formalin. Mice were then euthanized by exsanguination. The paraffin blocks of fixed pancreas were processed by automation and 5 micron sections were prepared from three levels for automated hematoxylin and eosin staining followed by aldehyde fuchsin stain for insulin. The histology slides were prepared and stained at Jackson Laboratory, Bar Harbor, Me.
# [6] = 13 weeks of age, treatment just before feeding (30 mg/kg GABA PO and/or 0.4 U insulin SQ)
# [7] = 19 weeks of age, treatment just before feeding
# [8] = 21 weeks of age, treatment just before feeding
# [9] = 22 weeks of age, treatment just before feeding
# [10] = 24 weeks of age, treatment just before feeding
# [11] = 26 weeks of age, treatment just before feeding
compound,measurement,setting,value
"NCCCC[C@H](N)C(=O)O [lysine, reference compound]",insulin requirements,"[1]; range over the 9 week study period, GABA 60 or 90 mg/kg or lysine 8 mg/kg PO BID before insulin",0.030-0.047 units/day
"NCCCC(=O)O [GABA, γ-aminobutyric acid]",average reduction in blood glucose levels from day 60 to day 120,insulin-dependent dogs [2]; 30 mg/kg GABA PO QD,32%
same,reduction in average blood glucose levels at day 120 compared to the pre-treatment average (day −10 through day 60),insulin-dependent dogs [2]; 30 mg/kg GABA PO QD,40%
same,overall improvement of mean 10 hour blood glucose,"insulin-dependent dogs [2]; day 0 to last visit, without significant change in average insulin dosage",33%
same,mean blood glucose over the 10 hour measurement period,"insulin-dependent dogs [2]; seven dogs, last visit, GABA escalated 30, 60, 90 mg/kg, day 0 value 310 mg/dl",209 mg/dL
same,fasting blood glucose control,"insulin-dependent dogs [2]; six dogs, 30 mg/kg GABA PO QD from day 60, with insulin, 30 mg/kg",downward decrease in fasting blood glucose; also recorded: substantially improved
same,mean fructosamine level,"insulin-dependent dogs [2]; six dogs, treatment days 60-120 with 30 mg/kg GABA vs pretreatment days 0-59 (p=0.007)",decline of the mean fructosamine level
same,Average Fasting Blood Glucose,"female NOD mice; 13 weeks of age, Group 5 fasting GABA, 30 mg/kg 2 hours before feeding",86 mg/dL
same,Average Fasting Blood Glucose,female NOD mice; [6],80 mg/dL
same,Average Fasting Blood Glucose,"female NOD mice; 15 weeks of age, Group 5 fasting GABA, 30 mg/kg 2 hours before feeding",97 mg/dL
same,Average Fasting Blood Glucose,"female NOD mice; 17 weeks of age, Group 5 fasting GABA, 30 mg/kg 2 hours before feeding",100 mg/dL
same,Average Fasting Blood Glucose,"female NOD mice; 19 weeks of age, Group 5 fasting GABA, 30 mg/kg 2 hours before feeding",172 mg/dL
same,Average Fasting Blood Glucose,female NOD mice; [7],127 mg/dL
same,Average Fasting Blood Glucose,"female NOD mice; 21 weeks of age, Group 5 fasting GABA, 30 mg/kg 2 hours before feeding",239 mg/dL
same,Average Fasting Blood Glucose,female NOD mice; [8],138 mg/dL
same,mice alive and diabetes free,"female NOD mice; 22 weeks of age, Group 2, 30 mg/kg GABA PO just before feeding (4/4 mice)",100%
same,mice that became diabetic,"female NOD mice; 22 weeks of age, Group 5, 30 mg/kg GABA under fasting conditions",50%
same,Average Fasting Blood Glucose,"female NOD mice; 22 weeks of age, Group 5 fasting GABA, 30 mg/kg 2 hours before feeding",266 mg/dL
same,Average Fasting Blood Glucose,female NOD mice; [9],173 mg/dL
same,Average Fasting Blood Glucose,"female NOD mice; 24 weeks of age, Group 5 fasting GABA, 30 mg/kg 2 hours before feeding",265 mg/dL
same,Average Fasting Blood Glucose,female NOD mice; [10],152 mg/dL
same,average fasting blood glucose compared with other treatment groups,female NOD mice; [10],significantly lower
same,average fasting blood glucose compared with other groups,"female NOD mice; 24 weeks, Group 5, 30 mg/kg GABA under fasting conditions",significantly higher
same,Average Fasting Blood Glucose,"female NOD mice; 26 weeks of age, Group 5 fasting GABA, 30 mg/kg 2 hours before feeding",226 mg/dL
same,Average Fasting Blood Glucose,female NOD mice; [11],253 mg/dL
same,prevention / delay of diabetes onset,"female NOD mice; Group 2, 30 mg/kg GABA just before feeding",delayed the longest; also recorded: most successful prevention treatment
same,effectiveness of prevention treatment,"female NOD mice; Group 5, 30 mg/kg GABA under fasting conditions, vs GABA just before feeding",less effective
same,average weight / lean body mass,"[3]; FIGS. 3 and 4, 30 mg/kg",maintained the lowest weights; also recorded: maintains lean body mass
same,insulin dose required over the course of treatment,"diabetic female NOD mice; 60 mg/kg GABA BID, insulin dosed to keep fasting blood glucose ≦200 (Ex. 2) or ≦150 mg/dl (Ex. 4)",declined markedly; also recorded: rapidly required less insulin; also recorded: significantly less insulin over time
same,lowering blood glucose levels and insulin requirements after onset of diabetes,diabetic female NOD mice; 60 mg/kg GABA PO BID,effective treatment
same,fasting and fed blood glucose in mice that became insulin independent,diabetic female NOD mice; 60 mg/kg GABA orally over approximately 11 weeks,completely restored to normal
same,number of insulin dependent diabetic mice that became insulin independent,diabetic female NOD mice; 60 mg/kg GABA treatment,four
same,reduction in insulin dose to keep fasting blood glucose ≦150 mg/dl,diabetic female NOD mice; all diabetic mice treated with 60 mg/kg GABA,≥ 85%
same,"decrease in average insulin requirement, of the maximum dose","diabetic female NOD mice; eight diabetic mice, 60 mg/kg GABA BID",85%
same,insulin required to maintain an average weekly blood glucose of 200 mg/dl,"diabetic female NOD mice; single mouse of FIG. 15, at sacrifice",0.0025 units
same,"insulin dose at sacrifice, of the original dose","diabetic female NOD mice; single mouse of FIG. 15, diabetic 34 weeks, on insulin and GABA throughout",less than 1%
same,insulin requirement to maintain fasting blood glucose ≦150 mg/dl,diabetic female NOD mice; three of the eight mice treated with GABA (FIG. 6),eventually came to zero
same,change of plasma GABA levels at visit 14,[4]; dose raised to 90 mg/kg,decreases two fold
same,increase of plasma GABA levels between visit 8 and visit 12,[4]; oral GABA dose doubled (30 to 60 mg/kg),~80 fold
same,C-peptide (area under the curve),insulin-dependent dogs [5],dose dependent increase
same,decrease in insulin compared to control mice,"[1]; 60 or 90 mg/kg GABA, over 9 weeks",4 fold
same,mice that became insulin independent,[1]; GABA treated group (4 out of 8),50%
same,blood glucose average in mice not requiring insulin,[1]; on oral GABA alone,below 150 mg/dl
same,mean blood glucose,"[1]; over 9 weeks, 60 or 90 mg/kg GABA with insulin",310 mg/dL
same,"pancreatic histology, islets and inflammation","NOD mouse pancreas; mouse that remained on GABA (and insulin) until sacrifice, FIG. 15",regenerated islets and little to no inflammation
same,pancreatic histology after stopping GABA treatment,"NOD mouse pancreas; mouse weaned off insulin, sacrificed at 64 weeks, FIG. 14",causes the inflammation to return to the pancreas
"Insulin: exogenous insulin given subcutaneously, 0.4 units just prior to consuming food [reference compound]",Average Fasting Blood Glucose,female NOD mice; [6],82 mg/dL
same,Average Fasting Blood Glucose,"female NOD mice; 15 weeks of age, treatment just before feeding",114 mg/dL
same,Average Fasting Blood Glucose,"female NOD mice; 17 weeks of age, treatment just before feeding",162 mg/dL
same,Average Fasting Blood Glucose,female NOD mice; [7],134 mg/dL
same,Average Fasting Blood Glucose,female NOD mice; [8],150 mg/dL
same,Average Fasting Blood Glucose,female NOD mice; [9],188 mg/dL
same,Average Fasting Blood Glucose,female NOD mice; [10],195 mg/dL
same,Average Fasting Blood Glucose,female NOD mice; [11],260 mg/dL
same,average weight / lean body mass,[3]; FIGS. 3 and 4,increased body mass throughout the study
